One experiment deals with H827. Put plainly: Non Small Cell Lung Cancer proliferation assay (Alamar Blue reduction), H827. The format is cell-based. On the procedure: […] are grown and maintained in Corning 175 cm2 flasks in RPMI 1640 media supplemented with 10% FBS, 1% antibiotic solution, 1% additional glutamine and pyruvate. These cells have a doubling time of 1-2 days. All cell types are adherent and grow in colonies. The cells should be kept at a density between 50,000 cells/mL -500,000 cells/mL to provide for optimum growth and adequate nutrition. The cell line should be maintained at 37° C. in a humidified atmosphere with 5% CO2 in a sterile cell culture incubator.
Non Small Cell Lung Cancer Proliferation Assay. To perform the assay, the Non Small Cell Lung Cancer lines are diluted in media and plated into 384 well microplates at a final density of 250 cells in […]. To ensure consistency and minimal pipetting error, the cells are plated using the Multidrop 384 with the following settings: Rocker Switch set at 384, Volume 45 and Column 24.
Low Controls for this assay are made by treating Non Small Cell Lung Cancer cells with 5 ul of staurosporine at 250 uM in 10% DMSO and 1% SDS. [Final concentration in this assay is 25 uM staurosporine in 1% DMSO and 0.1% SDS.]
High Controls for this assay are made by treating Non Small Cell Lung Cancer cells with 5 ul of 10% DMSO. [Final concentration in this assay is 1% DMSO].
The remaining wells of the 384 microplate may be treated with different compounds depending on the study. Important Note: All compounds for testing in this assay should be done at the final concentration of 1% DMSO.
After addition, the cells are placed in cell culture incubator at 37° C. for 48 hours for complete treatment.
After drug treatment, cytotoxicity is measured by Alamar Blue reduction. 5 μL of Alamar Blue is added to the 384 microplates using the Flexdrop.
The cells are incubated for 48 hours at 37° C. to complete the Alamar Blue reduction.
The final step in the assay is to measure the amount of Alamar Blue reduction. […] The Alamar Blue fluorescence is measured at an excitation of 530 nm and emission of 590 nm.
For the NSCLC project, the cell based assay was screened against a small molecule library of approximately 200,000 compounds. The compound library is stored in our automated robotic freezer (Biophile) at −20° C. in 100% DMSO. Compound freeze and thaw cycles are kept to a minimum. Compounds for use are diluted into the appropriate concentration and plated into 384 well microplates using our custom built low volume 384-well head tool (TPS 384, Apricot Designs Inc., CA, USA). This assay was performed on a fully automated linear track robotic platform (CRS F3 Robot System, Thermo Electron Corp., Ontario, Canada) utilizing several integrated peripherals for plate handling, liquid dispensing, and readout detection. First, non-small cell lung cancer cell lines are dispensed into 384 well microplates (Corning #3712 Tissue Culture Treated Plate, Corning, N.Y., USA) with 5 μL of test compounds at 100 uM in 10% DMSO for screening studies or […] in 10% DMSO to 50 nM in 10% DMSO for dose response studies. The microplates are then placed at 37° C. for 48 hours to complete treatment of cells with compounds. Next, 5 ul of alamar blue was added using a liquid dispenser (Flexprop Precision Dispenser, Perkin Elmer, Mass., USA) and incubated for 48 hours at 37° C. The alamar blue prompt fluorescence was measured on Victor V (Victor^3 V, Perkin Elmer, Mass., USA) and output data files were loaded into ORIS (Oncology Research Informatics System, MSKCC, NY, USA), a screening data acquisition and analysis platform.

Experiment [1] concerns NHBE (normal human bronchiolar epithelial cells). Kind of experiment: cells.
A further experiment deals with H1975. Kind of experiment: [3H]-thymidine incorporation assay, H1975. In kind it is cell-based, human. Conditions: H1975, mutant EGFR. How it is done:
FIGS. 41A-41B. SKI-267077 inhibits DNA synthesis. SKI-267077 was used to elucidate the mechanism by which this agent inhibits cell growth.
[^3H]-thymidine incorporation assay. Cells were seeded in 12-well plates at a density of 100 000 cells/well and treated with inhibitors for 24 hours. H3-thymidine (3 μCi/mL) was then added for 3 hours. Cells were washed twice with PBS, fixed with cold 10% TCA (in PBS) for 30 min then lysed with 0.5% NaOH/0.5% SDS. DNA was scraped from the wells and the amount of H3-thymidine incorporated determined by liquid scintillation counting.

Another experiment concerns caspase 3/7. Put plainly: Caspase 3/7 enzyme activity assay in cell extracts. In kind it is cell-based, human. As to conditions: H2030 cells, 1 μM, 48 h, whole cell extracts. How it is done:
FIG. 3. Activation of caspase 3/7 by SKI-267077. H2030 cells were treated with 1 μM SKI-267077 for 48 h and then caspase 3/7 activity measured in whole cell extracts.
Caspase 3/7 enzyme activity assay. Apoptosis was determined by measuring the enzymatic activity of caspase 3/7 in cell homogenates. Cells were plated at a density of 10,000 cells per well in 96-well plates and treated immediately with drugs for 24-72 h. Caspase 3/7 activity will be determined in cell extracts using Z-DEVD-R110 (rhodamine 110 conjugated to the caspase substrate Z-DEVD) as substrate (Promega). The fluorescence of the cleaved substrate was measured using a micro-titer fluorescence plate reader (Ex: 499 nm, Em: 521 nm).
SKI-267077 stimulates the enzymatic activity of caspase 3/7.

For a further experiment, the system named is AKT isoforms. Put plainly: Phosphoprotein array, AKT. In kind it is cell-based. Conditions: cells treated for 24 hours; PI-3kinase signaling pathway. On the procedure:
(§1) FIG. 43A-43C. A phosphoprotein array was used to determine which signaling pathways were affected by treatment of cells with SKI-267077. […] A phosphoprotein array (R and D Systems) was used to measure the level of phosphorylation of cellular proteins. Protein phosphorylation was determined according to the manufacturer's instructions.

Another experiment has as its system p70 S6 kinase. Kind of experiment: Phosphoprotein array, p70 S6 kinase. The format is cell-based. As to conditions: cells treated for 24 hours; PI-3kinase signaling pathway. On the procedure: as §1
For experiment [2], the system named is MAPK isoforms ERK1 and ERK2. Kind of experiment: Phosphoprotein array, ERK1 and ERK2. Conditions: cells treated for 24 hours; MAPK signaling pathway. In kind it is cell-based. How it is done: as §1
The mark [3] stands for this setting: Homo sapiens; read-out: Dose Response (uM) H827.
Setting [4] is: Homo sapiens, read-out: Dose Response (uM) H827.
The mark [5] stands for this setting: Homo sapiens, NHBE, read-out: IC50(uM) NHBE.

Where two headings read alike, the source gives them in different places.

In the case of `Cc1ccc(-n2ncc(Cl)c(Cl)c2=O)cc1` [compound 257016], the IC50 in the experiment with H827 (setting [3]) came out at 0.29 µM.
On the same count and under the same terms, the value for `Cc1cccc(-n2ncc(Cl)c(Cl)c2=O)c1C` [compound 257018] was 0.5 µM; that for `O=c1c(Cl)c(Cl)cnn1-c1cccc(C(F)(F)F)c1` [compound 176729] was 0.17 µM.
Regarding `Cc1cccc(NC(=O)c2ccc([N+](=O)[O-])o2)c1` [compound 71762], the IC50 in experiment [1] (Homo sapiens, NHBE, read-out: IC50(uM) NHBE, phenylfuran-2-carboxamide SAR summary) was determined as 15.8 µM; in experiment [1] (read-out: IC50(uM) NHBE, phenylfuran-2-carboxamide SAR summary) it was 14.8 µM.
On to `O=c1c(Cl)c(Cl)cnn1-c1ccccc1` [compound 257014], for which the IC50 with H827 (setting [4]) stood at 0.24 µM.
On to `Cc1cc(C)cc(-n2ncc(Cl)c(Cl)c2=O)c1` [compound 257020], for which, in the experiment with H827 (setting [3]), the IC50 turned out to be 0.3 µM.
On to `Cc1ccc(NC(=O)c2ccc([N+](=O)[O-])o2)cc1` [compound 98697], for which, in experiment [1] (setting [5]), the IC50 was 29.4 µM.
Turning to `O=c1c(Cl)c(Cl)cnn1-c1ccc(Cl)cc1Cl` [compound 267077], in the experiment on H1975, the DNA synthesis result was “dose-dependent reduction in DNA synthesis”. For the same compound, in the experiment with caspase 3/7, the “activity of caspase 3/7” value is “increase in the activity of caspase 3/7”. Moreover, the “phosphorylation of AKT isoforms” value in the experiment with AKT isoforms is listed as “blocked phosphorylation of all three AKT isoforms”. For the same compound, the “phosphorylation of p70 S6 kinase” value in the experiment with p70 S6 kinase is “blocked phosphorylation”. Besides, the “phosphorylation of ERK1 and ERK2” value in experiment [2] was “reduced phosphorylation of the MAPK isoforms ERK1 and ERK2”.
Turning to `O=c1c(Br)c(Br)cnn1-c1ccccc1` [compound 257015], in the experiment on H827 (setting [3]), the IC50 amounted to 0.17 µM.
On to `Cc1cccc(-n2ncc(Cl)c(Cl)c2=O)c1` [compound 104122, 4,5-dichloro-2-m-tolyl-2H-pyridazin-3-one], for which the IC50 in the experiment on H827 (setting [4]) worked out at 0.09 µM.
As to `Cc1ccc(-n2ncc(Cl)c(Cl)c2=O)cc1C` [compound 257019], the IC50 in the experiment on H827 (setting [3]) came to 0.32 µM.
As to `O=C(Nc1ccc(Cl)cc1)c1ccc([N+](=O)[O-])o1` [compound 98698, 5-nitro-furan-2-carboxylic acid (4-chloro-phenyl)-amide], the IC50 in experiment [1] (setting [5]) worked out at 21.4 µM.

Source of the values: patent US20100210649A1, “PYRIDAZINONES AND FURAN-CONTAINING COMPOUNDS” (Sloan-Kettering Institute for Cancer Research, priority 2006, published 2010).
